Measurements reported in patent US9309248B2, “Azaindolines” (Hoffmann-La Roche Inc., priority 2012, dated 2016).

Legend:
[1] = biological target: T1, BIR3 domain of XIAP (Homo sapiens, UniProt P98170); test: TR-FRET assay for BIR3 (inhibition of binding of XIAP BIR3 domain to SMAC-derived Peptide A); conditions: 6x Histidine-tagged BIR3 domain (amino acids 241-356 of XIAP) 10 nM, Peptide A 20 nM
T1 construct: BIR3 domain, corresponding to amino acids 241-356 of XIAP
Experimental: (§1) TR-FRET Assay for BIR2 and BIR3
(§2) The ability of a test compound to inhibit the binding of BIR2 and/or BIR3 domains of the XIAP protein to Peptide A (a SMAC-derived peptide described below) evidences that the test compound acts as a SMAC-mimetic resulting in reactivation of a cell's apoptotic pathway.
(§3) The peptides were labeled with the fluorescent tags FITC or TAMRA and Kd values were determined by fluorescence polarization assay. […] The peptide sequence was derivatized with biotin to provide […]-(ε-biotin)-OH 1:2 TFA as the substrate for the TR-FRET assay.
The sequence of the BIR3 domain used for the TR-FRET assay is […]
Ten nanomolar of 6× Histidine-tagged BIR2 domain, corresponding to amino acids 124-240 of XIAP, or BIR3 domain, corresponding to amino acids 241-356 of XIAP, was mixed with 20 nM of the peptide […]-(z-biotin)-OH 1:2 TFA, in the presence of 50 mM Tris-Cl, pH 7.5, 100 mM NaCl, 1 mM dithiothreitol (DTT) and 0.1 mg/mL bovine serum albumin (BSA). Following a […] incubation at 37° C., Europium-Streptavidin and Allophycocyanin conjugated anti-Histidine antibody were added to a final concentration of 1.5 nM and 15 nM, respectively. Time-resolved fluorescence resonance energy transfer (TR-FRET) signals were measured 1 hour later at room temperature. Test compound potency was assessed at 10 serially diluted concentrations. Percentage of inhibition at each concentration was determined to generate an IC50 value for each test compound.

[2] = biological target: T2, BIR2 domain of XIAP (Homo sapiens, UniProt P98170, C202A/C213G); test: TR-FRET assay for BIR2 (inhibition of binding of XIAP BIR2 domain to SMAC-derived Peptide A); conditions: 6x Histidine-tagged BIR2 domain (amino acids 124-240 of XIAP) 10 nM, Peptide A 20 nM
T2 construct: 6× Histidine-tagged BIR2 domain, corresponding to amino acids 124-240 of XIAP
T2 sequence (P98170 with tags, fused parts or gaps C202A/C213G): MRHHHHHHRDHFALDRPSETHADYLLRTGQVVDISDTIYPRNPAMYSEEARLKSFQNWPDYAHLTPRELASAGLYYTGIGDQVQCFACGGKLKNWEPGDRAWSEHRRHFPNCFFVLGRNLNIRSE
Experimental: as §1, §2, §3
The XIAP protein sequence was obtained from the SWISS-PROT protein sequence database and the BIR2 and BIR3 domains were derived from that. The sequence of the BIR2 domain used for the TR-FRET assay is […].
Time-resolved fluorescence resonance energy transfer (TR-FRET) signals were measured 1 hour later at room temperature. Test compound potency was assessed at 10 serially diluted concentrations. Percentage of inhibition at each concentration was determined to generate an IC50 value for each test compound.

T1 sequence (P98170 with tags, fused parts or gaps): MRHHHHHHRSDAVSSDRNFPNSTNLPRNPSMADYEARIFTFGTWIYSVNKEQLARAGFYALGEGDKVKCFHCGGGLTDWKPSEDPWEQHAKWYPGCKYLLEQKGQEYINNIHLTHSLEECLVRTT

| SMILES | IC50 [1] [nM] | IC50 [2] [nM] |
| --- | --- | --- |
| CN[C@@H](C)C(=O)N[C@H](C(=O)N1CC(C)(C)c2cccnc21)C(C)C [Example 2, (S)—N—[(S)-1-(3,3-Dimethyl-2,3-dihydro-pyrrolo[2,3-b]pyridine-1-carbonyl)-2-methyl-propyl]-2-methylamino-propionamide] | > 54800 | 3880 |
| CC[C@H](NC)C(=O)N[C@H](C(=O)N1c2ncccc2C[C@@H]1C(=O)Nc1ccccc1)C1CCCCC1 [Example 81, (R)-1-[(S)-2-Cyclohexyl-2-((S)-2-methylamino-butyrylamino)-acetyl]-2,3-dihydro-1H-pyrrolo[2,3-b]pyridine-2-carboxylic acid phenylamide] | > 54800 | 10400 |
| CC[C@H](NCCO)C(=O)N[C@H](C(=O)N1c2ncccc2C[C@H]1C(=O)Nc1ccccc1)C(C)C [Example 90, (S)-1-{(S)-2-[(S)-2-(2-Hydroxy-ethylamino)-butyrylamino]-3-methyl-butyryl}-2,3-dihydro-1H-pyrrolo[2,3-b]pyridine-2-carboxylic acid phenylamide] | > 54800 | 1610 |
| CC[C@H](NC)C(=O)N[C@H](C(=O)N1c2ncccc2C[C@H]1C(=O)Nc1c(F)cccc1F)C(C)C [Example 78, (S)-1-[(S)-3-Methyl-2-((S)-2-methylamino-butyrylamino)-butyryl]-2,3-dihydro-1H-pyrrolo[2,3-b]pyridine-2-carboxylic acid (2,6-difluoro-phenyl)-amide] | > 54800 | 14.2 |
| CN[C@@H](C)C(=O)N[C@H](C(=O)N1c2ncccc2C[C@H]1C(=O)Nc1cc(F)cc(F)c1)C(C)C [Example 23, (S)-1-[(S)-3-Methyl-2-((S)-2-methylamino-propionylamino)-butyryl]-2,3-dihydro-1H-pyrrolo[2,3-b]pyridine-2-carboxylic acid (3,5-difluoro-phenyl)-amide] | > 54800 | 427 |
| CN[C@@H](C)C(=O)N[C@H](C(=O)N1c2ncccc2C[C@H]1C(=O)Nc1c(F)cccc1F)C1CCOCC1 [Example 94, (S)-1-[(S)-2-((S)-2-Methylamino-propionylamino)-2-(tetrahydro-pyran-4-yl)-acetyl]-2,3-dihydro-1H-pyrrolo[2,3-b]pyridine-2-carboxylic acid (2,6-difluoro-phenyl)-amide] | > 54800 | 9.79 |
| CN[C@@H](C)C(=O)N[C@H](C(=O)N1c2ncccc2C[C@H]1C(=O)Nc1c(F)cccc1F)C(C)C [Example 28, (S)-1-[(S)-3-Methyl-2-((S)-2-methylamino-propionylamino)-butyryl]-2,3-dihydro-1H-pyrrolo[2,3-b]pyridine-2-carboxylic acid (2,6-difluoro-phenyl)-amide] | > 54800 | 14.4 |
| CN[C@@H](C)C(=O)N[C@H](C(=O)N1c2ncccc2C[C@H]1C(=O)Nc1c(Cl)cccc1C(F)(F)F)C(C)C [Example 75, (S)-1-[(S)-3-Methyl-2-((S)-2-methylamino-propionylamino)-butyryl]-2,3-dihydro-1H-pyrrolo[2,3-b]pyridine-2-carboxylic acid (2-chloro-6-trifluoromethyl-phenyl)-amide] | > 54800 | 57.5 |
| CN[C@@H](C)C(=O)N[C@H](C(=O)N1c2ncccc2C[C@H]1C(=O)Nc1ccccc1-c1ccccc1)C(C)C [Example 18, (S)-1-[(S)-3-Methyl-2-((S)-2-methylamino-propionylamino)-butyryl]-2,3-dihydro-1H-pyrrolo[2,3-b]pyridine-2-carboxylic acid biphenyl-2-ylamide] | 37600 | 108 |
| CN[C@@H](C)C(=O)N[C@H](C(=O)N1c2ncccc2C[C@H]1C(=O)Nc1ccc(C)cc1F)C(C)C [Example 46, (S)-1-[(S)-3-Methyl-2-((S)-2-methylamino-propionylamino)-butyryl]-2,3-dihydro-1H-pyrrolo[2,3-b]pyridine-2-carboxylic acid (2-fluoro-4-methyl-phenyl)-amide] | > 54800 | 4.04 |
| CN[C@@H](C)C(=O)N[C@H](C(=O)N1c2ncccc2C[C@H]1C(=O)NCc1ccc(F)cc1)C(C)C [Example 24, (S)-1-[(S)-3-Methyl-2-((S)-2-methylamino-propionylamino)-butyryl]-2,3-dihydro-1H-pyrrolo[2,3-b]pyridine-2-carboxylic acid 4-fluoro-benzylamide] | 9210 | 774 |
| CN[C@@H](C)C(=O)N[C@H](C(=O)N1c2ncccc2C[C@H]1C(=O)Nc1ccccc1)C(C)C [Example 11, (S)-1-[(S)-3-Methyl-2-((S)-2-methylamino-propionylamino)-butyryl]-2,3-dihydro-1H-pyrrolo[2,3-b]pyridine-2-carboxylic acid phenylamide] | > 54800 | 63.5 |
| CN[C@@H](C)C(=O)N[C@H](C(=O)N1c2ncccc2C[C@H]1C(=O)Nc1ccccc1)C1CCCCC1 [Example 80, (S)-1-[(S)-2-Cyclohexyl-2-((S)-2-methylamino-propionylamino)-acetyl]-2,3-dihydro-1H-pyrrolo[2,3-b]pyridine-2-carboxylic acid phenylamide] | > 54800 | 117 |
| CN[C@@H](C)C(=O)N[C@H](C(=O)N1c2ncccc2C[C@@H]1c1nc2ccccc2[nH]1)C(C)C [Example 35, (S)—N—{(S)-1-[(R)-2-(1H-Benzoimidazol-2-yl)-2,3-dihydro-pyrrolo[2,3-b]pyridine-1-carbonyl]-2-methyl-propyl}-2-methylamino-propionamide] | > 54800 | 37700 |
| CN[C@@H](C)C(=O)N[C@H](C(=O)N1c2ncccc2C[C@H]1C(=O)Nc1cc(C)cc(C)c1)C(C)C [Example 45, (S)-1-[(S)-3-Methyl-2-((S)-2-methylamino-propionylamino)-butyryl]-2,3-dihydro-1H-pyrrolo[2,3-b]pyridine-2-carboxylic acid (3,5-dimethyl-phenyl)-amide] | > 54800 | 304 |
| CNC(=O)c1ccc(NC(=O)[C@@H]2Cc3cccnc3N2C(=O)[C@@H](NC(=O)[C@H](C)NC)C(C)C)c(F)c1 [Example 64, (S)-1-[(S)-3-Methyl-2-((S)-2-methylamino-propionylamino)-butyryl]-2,3-dihydro-1H-pyrrolo[2,3-b]pyridine-2-carboxylic acid (2-fluoro-4-methylcarbamoyl-phenyl)-amide] | > 54800 | 59.6 |
| CN[C@@H](C)C(=O)N[C@H](C(=O)N1c2ncccc2C[C@H]1C(=O)NCC(F)(F)F)C(C)C [Example 37, (S)-1-[(S)-3-Methyl-2-((S)-2-methylamino-propionylamino)-butyryl]-2,3-dihydro-1H-pyrrolo[2,3-b]pyridine-2-carboxylic acid (2,2,2-trifluoro-ethyl)-amide] | > 54800 | 323 |
| CN[C@@H](C)C(=O)N[C@H](C(=O)N1c2ncccc2C(C)C1C(=O)Nc1c(F)cccc1F)C(C)C (stereo partly drawn) [Example 98, 3-Methyl-1-[(S)-3-methyl-2-((S)-2-methylamino-propionylamino)-butyryl]-2,3-dihydro-1H-pyrrolo[2,3-b]pyridine-2-carboxylic acid (2,6-difluoro-phenyl)-amide] | > 54800 | 17 |
| CN[C@@H](C)C(=O)N[C@H](C(=O)N1c2ncccc2C[C@@H]1C(=O)Nc1ccccc1C)C(C)C [Example 13, (R)-1-[(S)-3-Methyl-2-((S)-2-methylamino-propionylamino)-butyryl]-2,3-dihydro-1H-pyrrolo[2,3-b]pyridine-2-carboxylic acid o-tolylamide] | > 54800 | > 54800 |
| CC[C@H](NC)C(=O)N[C@H](C(=O)N1c2ncccc2C[C@H]1C(=O)Nc1ccccc1)C(C)C [Example 85, (S)-1-[(S)-3-Methyl-2-((S)-2-methylamino-butyrylamino)-butyryl]-2,3-dihydro-1H-pyrrolo[2,3-b]pyridine-2-carboxylic acid phenylamide] | > 54800 | 69.1 |
| CN[C@@H](C)C(=O)N[C@H](C(=O)N1c2ncccc2C[C@@H]1C(=O)Nc1ccccc1OC)C(C)C [Example 9, (R)-1-[(S)-3-Methyl-2-((S)-2-methylamino-propionylamino)-butyryl]-2,3-dihydro-1H-pyrrolo[2,3-b]pyridine-2-carboxylic acid (2-methoxy-phenyl)-amide] | > 54800 | 12700 |
